Experimental data from US6346529B1, “Antiviral therapy using thiazine dyes” (Oklahoma Medical Research Foundation, priority 1988, dated 2002).

Columns and labels:
Assay type in all cases: cell-based
[1] = test system: HIV-1 (strain LAV-1); experiment: Inhibition of HIV-1 replication in human PBMC (supernatant RT activity); details: Human immunodeficiency virus 1, PBMC; light/dark not stated; read-out: Antiviral Effect: EC50 HIV-1
Protocol: Cells: Human peripheral blood mononuclear cells (PBMC) from healthy HIV-1 seronegative and hepatitis B virus seronegative donors were isolated by Ficoll-Hypaque discontinuous gradient centrifugation at 1,000×g for 30 minutes, washed twice in phosphate-buffered saline (pH 7.2; PBS), and pelleted at 300×g for 10 minutes. Before infection, the cells were stimulated by phytohemagglutinin (PHA) at a concentration of 16.7 μg/ml, and 4 mM sodium bicarbonate buffer.
Retrovirus: HIV-1 (strain LAV-1) was obtained from Dr. P. Feorino (Centers for Disease Control, Atlanta, Ga.). The virus was propagated in human PBMC using RPMI 1640 medium, as described previously by McDougal, et al., (“Immunoassay for the detection and quantitation of infectious human retrovirus, lymphadenopathy-associated virus (LAV),” J. Immun. Meth. 76, 171-183, 1985) without PBA or fungizone and supplemented with 7% (v/v) interleukin-2 (Advanced Biotechnologies, Silver Spring, Md.), 7 μg/ml DEAE-dextran (Pharmacia, Uppsala, Sweden), and 370 U/ml anti-human leukocyte (alpha) interferon (ICN, Lisle, Ill.). Virus obtained from cell-free culture supernatant was titrated and stored in aliquots at −70° C. until use.
Inhibition of Virus Replication in Human PBMC: Uninfected PHA-stimulated human PBMC were uniformly distributed among 25 cm^2 flasks to give a 5 ml suspension containing about 2×10^6 cells/ml. Suitable dilutions of virus were added to infect the cultures. The mean reverse transcriptase (RT) activity of the inocula was 50,000 dpm/ml corresponding to about 100 TCID50, as determined by Groopman, et al., (1987), “Characterization of Serum Neutralization Response to the Human Immunodeficiency Virus (HIV),” AIDS Res. Human Retro. 3, 71-85. The drugs, at twice their final concentrations in 5 ml of RPMI 1640 medium (supplemented as described above), were added to the cultures. Uninfected and untreated PBMC at equivalent cell densities were grown in parallel as controls. The cultures were maintained in a humidified 5% CO2-95% air incubator at 37° C. for six days after infection at which point all cultures were sampled for supernatant RT activity.
RT Activity Assay: A […] aliquot of supernatant from each culture was clarified of cells at 300×g for 10 minutes. […]
The RT assay was performed in 96-well microtiter plates, as described by Spira, et al. (1987), “Micromethod for Assaying the Reverse Transcriptase of LAV-HTLV-III/Lymphadenopathy-Associated Virus,” J. Clin. Microbiol. […] Four ml of scintillation fluid (Econofluor, NEN Research Products, Boston, Mass.) were added and the amount of radioactivity in each sample was determined using a Packard Tri-Carb liquid scintillation analyzer (model 2,000CA). […]

[2] = test system: HSV-2 (G strain); experiment: HSV plaque reduction assay in Vero cells, HSV-2; details: Human alphaherpesvirus 2, Vero, light/dark not stated; read-out: Antiviral Effect: EC50 HSV-2
Protocol: (§1) HSV Preparation: Confluent HEp-2 cells, in a roller bottle (Falcon, 850 cm^2), were infected at an input multiplicity of 0.01 PFU per cell (to minimize production of defective viruses). During the two-hour absorption period, the cells were exposed to the virus inoculum diluted in absorption buffer (10 ml PBS containing 1% newborn calf serum and 0.1% glucose). The virus inoculum was then removed and replaced with Hanks' Minimum Essential Medium (MEM) containing 2% inactivated newborn calf serum, penicillin (100 U/ml) and streptomycin (100 μg/ml) (P and S), sodium bicarbonate (2 g/L) and HEPES (25 mM) (maintenance medium). The infected cells were incubated at 37° C. for 3 to 4 days, until the cells could be easily shaken from the plastic surface of the culture bottles. The cells were then collected by centrifugation, suspended in a small volume of spent culture fluid (5 ml per 2×10^8 cells) and sonicated 3 times for one min on ice. The disrupted cells were centrifuged (2,000 g for 15 min at 4° C. and the supernatant was diluted with an equal volume of sterile skimmed milk (as stabilizer) and aliquots were frozen at −70° C.
(§2) HSV Plaque Reduction Assay: Near confluent Vero (African Green Monkey) cells in 6-well plates were infected with 100 μl virus diluted in absorption buffer to give 100-200 plaques per well. The plates were then incubated at 37° C. for 1 hour with intermittent rocking every 15 minutes. The inoculum was aspirated and the compounds at different concentrations (dissolved in maintenance medium) were added to replicate wells. For these assays, 0.1% pooled human gamma globulin was included in the media. The plates were placed in 5% CO2-95% air incubator and the plaques were allowed to develop for 48 h prior to fixation (buffered 10% Formalin acetate), staining (0.5% crystal violet in 20% EtOH/H2O) and enumeration. The degree of inhibition (percent plaques of control) was calculated by counting the mean plaque counts for the different drug dilutions. […] For routine antiviral drug screening, we used the F strain of HSV-1 and the G strain of HSV-2 (Ejercito, et al., “Characterization of Herpes Simplex virus Strains Differing in Their Effect on Social Behavior of Infected Cells,” J. Gen. Virol. 2, 357-364 (1968)). […] Acyclovir (ACV) was used as a positive control for the studies on HSV.
(§3) Median-Effect Method: EC50 and IC50 values were obtained by analysis of the data using the median-effect equation (Chou, T., et al., “Quantitative Analysis of Dose-Effect Relationships: The Combined Effects of Multiple Drugs or Enzyme Inhibitors,” Adv. Enz. Regul. 22, 27-55 (1984).

[3] = test system: HIV (LAV-I); experiment: HIV in human PBMC, P24 levels by EIA
Protocol: While the previous example measured RT activity, the present example utilizes a direct quantitation of a viral protein (P24) as an indicator of antiviral effectiveness.
Peripheral blood mononuclear (PBM) cells were infected with HIV and treated with methylene blue as described above. The EC50 levels were calculated from enzyme immuno-assay (EIA) measurements of viral coat protein P24. The P24-specific EIA kit was purchased from Abbott Labs.

[4] = test system: HSV-1 (F strain); experiment: HSV plaque reduction assay in Vero cells, HSV-1; details: Human alphaherpesvirus 1, Vero, light/dark not stated; read-out: Antiviral Effect: EC50 HSV-1
Protocol: as §1, §2, §3

**Q.** For `Cc1cn([C@H]2C[C@H](N=[N+]=[N-])[C@@H](CO)O2)c(=O)[nH]c1=O` [AZT, 3′-azido-3′-deoxythymidine], which EC50 [1] is on record?
**A.** The EC50 was 0.22 nM.

**Q.** What about the EC50 [2] of the same compound?
**A.** The EC50 was greater than 100000 nM.

**Q.** And the “ng P24/ml” value ([3]; 0.0001 μM)?
**A.** Its value is 360.7 ng P24/ml.

**Q.** And the “ng P24/ml” value ([3]; 0.001 μM)?
**A.** The value was 266.2 ng P24/ml.

**Q.** And the “ng P24/ml” value ([3]; 0.01 μM)?
**A.** The value was 36.1 ng P24/ml.

**Q.** What about the “ng P24/ml” value ([3]; 0.1 μM) of the same compound?
**A.** The value was 5.2 ng P24/ml.

**Q.** And the inhibition at 0.0001 µM ([3]; Human immunodeficiency virus 1, PBMC, 0.0001 μM, read-out: % Inhibition (corrected))?
**A.** The inhibition at 0.0001 µM was -0.5%.

**Q.** And the inhibition at 0.001 µM ([3]; Human immunodeficiency virus 1, PBMC, 0.001 μM, read-out: % Inhibition (corrected))?
**A.** Its inhibition at 0.001 µM is 25.8%.

**Q.** What about the inhibition at 0.01 µM ([3]; Human immunodeficiency virus 1, PBMC, 0.01 μM, read-out: % Inhibition (corrected)) of the same compound?
**A.** Its inhibition at 0.01 µM is 89.9%.

**Q.** What about the inhibition at 0.1 µM ([3]; Human immunodeficiency virus 1, PBMC, 0.1 μM, read-out: % Inhibition (corrected)) of the same compound?
**A.** Its inhibition at 0.1 µM is 98.5%.

**Q.** What about the EC50 ([3]; Human immunodeficiency virus 1, PBMC, light/dark not stated, read-out: EC50 (P24)) of the same compound?
**A.** The EC50 was 6.4 nM.

**Q.** And the EC50 [4]?
**A.** Its EC50 is greater than 100000 nM.
